Results: article PMC9429672, “Structure and diffusive dynamics of aspartate α-decarboxylase (ADC) liganded with D-serine in aqueous solution” (Physical Chemistry Chemical Physics, 2022)

Target: T1, aspartate α-decarboxylase (ADC) (Escherichia coli, UniProt A0A4Y8GT61)
T1 construct: gene panD; recombinant, purified from E. coli by earlier protocols; zymogen self-cleaved into alpha and beta chains, pyruvoyl cofactor at beta N-terminus; homotetramer
Assay: X-ray crystal structure of soaked crystal
Type: binding
Conditions: crystals in 1.8 M ammonium sulphate, 100 mM sodium citrate pH 4.5, D-serine soak about 2 min; active site; two ligand conformers (60% / 40% occupancy); inhibitor

Structure (SMILES): N[C@H](CO)C(=O)O [D-serine]
- X-ray crystal structure of soaked crystal: The crystal structure of ADC in complex with D-serine was determined
